These results are taken from patent EP4306512A1, “QUINOLYLNITRONES WITH IMPROVED POTENCY” (Fundación para la Investigación Biomédica del Hospital …, priority 2022, dated 2024).

This data set concerns Primary neuronal cultures. The data set can be described thus: Neuroprotection after oxygen-glucose deprivation (OGD 4 h, 24 h recovery) in primary neuronal cultures, cell viability by MTT assay. Format: cell-based, rat. The settings on record: for cell viability: MTT absorbance after OGD 4 h and 24 h recovery, R24h vehicle 1.480 ± 0.02 AU, control 1.916 ± 0.07 AU; for Neuroprotection at 1 µM / Neuroprotection at 10 µM / Neuroprotection at 100 µM: Rattus norvegicus; for Neuroprotection at 1 µM: Conc 1 µM; for Neuroprotection at 10 µM: Conc 10 µM; for protective effect (cell viability compared with vehicle-treated group R24h), in words: concentration range tested, from 0.1 to 250 µM; for neuroprotection effect / potency compared with references, in words: 1 µM for the compounds of the invention vs 10 µM for QN23 and 100 µM NXY-059; for toxicity / safety, in words: all tested doses. The protocol: Primary Neuronal Cultures. Primary neuronal cultures were prepared from rat embryos cerebral cortex following a procedure previously described by our group. Briefly, cell suspensions were prepared from cerebral cortices from E16 Sprague Dawley rat embryos and seeded on plastic multidishes precoated with 0.05 mg/mL poly-D-lysine at a density of 2.5 × 10^5 cells/cm^2. Cells were kept at 37 °C in a 6.5% CO2 atmosphere in high glucose DMEM medium supplemented with 15% heat-inactivated (56 °C, 30 min) fetal calf serum. After 24 h, culture medium was replaced by serum-free medium (DMEM/Ham's F12, 1:1 vol/vol, 5 mg/mL glucose, 2 mM L-glutamine, and 1 mM sodium pyruvate, supplemented with 100 µg/mL transferrin, 100 µM putrescine, 30 nM sodium selenite, 20 nM progesterone, and 5 µg/mL insulin). In these experiments, 6- to 7-days in vitro (DIV) neuronal cultures were used, containing 90% β-tubulin isotype III-positive mature neurons, as described previously.^23 All procedures associated with animal experiments were authorized by the Animal Experimentation Ethics Committee of the Hospital Universitario Ramón y Cajal (Madrid, Spain).
Experimental Ischemia in Neuronal Cultures and Treatments. Primary neuronal cultures were subjected to oxygen-glucose deprivation (OGD) to induce experimental ischemia. Cells cultured for 6- to 7- DIV were washed and placed in glucose-free DMEM medium (previously bubbled with 95% N2/5% CO2 for 30 min) and kept in a humidified anaerobic chamber containing a gas mixture of 95% N2/5% CO2 at 37 °C for 4 h (OGD 4h). Control group was placed in glucose-supplemented DMEM medium and kept in the normoxic incubator for 4h. After 4h of incubation under anoxic (OGD 4h) or normoxic (control) conditions, culture cells were quickly placed in serum-free normo-glycemic culture medium and let to reoxygenate, compounds or vehicle were added and cells were maintained in normoxic and normoglycemic conditions to recover for 24 h. Vehicle experimental group (R24h) included the same amount of vehicle solution than the groups tested with compounds (final concentration < 0.5% ethanol). The experimental procedure was blindly performed, assigning a random order to each group assayed. Compound assays were performed independently from four to eight times with different batches of cultures, and each experiment was run in quadruplicate.
Cell viability assays. To assess the potential neuroprotective effect of the compounds against OGD, cell viability was evaluated by quantification of living, metabolically active cells, as determined by the colorimetric assay using the photometric reduction of 3-(4,5-dimethylthiazol-2-yl)-2,5-diphenyl tetrazolium bromide (MTT) (Roche) to a blue formazan product. MTT assay was performed after the 24-hour-long recovery period -except for the OGD 4h group, for which MTT was added right after the end of the OGD period, with no recovery- by treating cells with 0.2 mg/mL MTT in the culture medium for 1.5 h at 37 °C in a 6.5% CO2 atmosphere. After incubation, cells were lysed with an equal volume of lysis solution (10 mM HCl, 10% SDS) overnight. Values were quantified by absorbance at 595 nm (reference 690 nm) and expressed in Absorbance Units (AU). Decreased MTT activity denotes impairment of mitochondrial function and is indicative of cell damage.
Statistical Analysis. Data from each treatment were independently analyzed and their averaged values were used for statistical analysis. The treatment information was kept concealed throughout the study. Data were represented as mean ± SE. Analysis of variance (ANOVA) was performed to compare the data between multiple concentrations, following post hoc test when analysis of variance was significant. Statistical significance level was set at α = 0.05 using Prism statistical software (GraphPad Software).
Cell viability observed in the control group was set as 100% of neuroprotection. […]

[1] abbreviates: Conc 100 µM, added at onset of 24 h recovery after OGD 4 h, R24h vehicle = 0%, control = 100%, mean ± SE.
The mark [2] stands for this setting: added at onset of 24 h recovery after OGD 4 h, R24h vehicle = 0%, control = 100%, mean ± SE.

`CC(C)(C)[N+]([O-])=Cc1ccc(S(=O)(=O)[O-])cc1S(=O)(=O)[O-].[Na+].[Na+]` [NXY-059, reference compound] had a cell viability (100 µM) of 1.664 ± 0.07 AU. The “Neuroprotection (%)” value under setting [1] is 41.93 ± 2.26%.

`C#CCOc1ccc2nc(Cl)c(/C=[N+](\[O-])Cc3ccccc3)cc2c1` [QN1, (Z)-N-Benzyl-1-(2-chloro-6-(prop-2-yn-1-yloxy)quinolin-3-yl)methanimine oxide]: the “protective effect (cell viability compared with vehicle-treated group R24h), in words” value is on record as “no remarkable overall protective effect”. Under setting [2], this compound gave a Neuroprotection at 1 µM of 26.9 ± 0.88% and a Neuroprotection at 10 µM of 34.8 ± 0.78%. For the same compound, under setting [1], the Neuroprotection at 100 µM was determined as 41.3 ± 1.91%.

For `C#CCOc1ccc2nc(Cl)c(/C=[N+](\[O-])C(C)(C)C)cc2c1` [QN2, (Z)-N-tert-Butyl-1-(2-chloro-6-(prop-2-yn-1-yloxy)quinolin-3-yl)methanimine oxide], the “protective effect (cell viability compared with vehicle-treated group R24h), in words” value was “no remarkable overall protective effect”. Under setting [2], this compound showed a Neuroprotection at 1 µM of 33.7 ± 0.73% and a Neuroprotection at 10 µM of 33.3 ± 0.93%. Besides, the Neuroprotection at 100 µM under setting [1] was 40 ± 0.77%.

For the compound `[O-]/[N+](=C\c1cc2cc(OCc3ccccc3)ccc2nc1Cl)Cc1ccccc1` [QN3, (Z)-N-Benzyl-1-(6-(benzyloxy)-2-chloroquinolin-3-yl)methanimine oxide], the Neuroprotection at 1 µM under setting [2] is 45.2 ± 1%.

Consider `CC(C)(C)/[N+]([O-])=C/c1cc2cc(OCc3ccccc3)ccc2nc1Cl` [QN4, (Z)-N-tert-Butyl-1-(6-(benzyloxy)-2-chloroquinolin-3-yl)methanimine oxide], for which the “neuroprotection effect / potency compared with references, in words” value was “highest neuroprotection effect”. Further, where the note is “1 µM”, the cell viability stood at 1.777 ± 0.04 AU. Besides, the Neuroprotection at 1 µM under setting [2] worked out at 67.9 ± 1.44%.

Consider `COc1ccc2nc(O)c(/C=[N+](\[O-])C(C)(C)C)cc2c1` [QN5, (Z)-N-tert-Butyl-1-(2-hydroxy-6-methoxyquinolin-3-yl)methanimine oxide], for which the “protective effect (cell viability compared with vehicle-treated group R24h), in words” value is on record as “did not give a remarkable protective effect”. For the same compound, under setting [2], the Neuroprotection at 1 µM is 24.5 ± 0.54%.

Take `COc1ccc2nc(F)c(/C=[N+](\[O-])Cc3ccccc3)cc2c1` [QN6, (Z)-N-Benzyl-1-(6-(methoxy)-2-fluoroquinolin-3-yl)methanimine oxide]: the “protective effect (cell viability compared with vehicle-treated group R24h), in words” value is reported as “did not show significant differences to the value obtained for the vehicle-treated group”. Under setting [2], the Neuroprotection at 1 µM came to 26.3 ± 0.89% and the Neuroprotection at 10 µM is 25.1 ± 1.03%.

On to `COc1ccc2nc(F)c(/C=[N+](\[O-])C(C)(C)C)cc2c1` [QN7, (Z)-N-tert-Butyl-1-(6-(methoxy)-2-fluoroquinolin-3-yl)methanimine oxide], for which the “protective effect (cell viability compared with vehicle-treated group R24h), in words” value was “did not show significant differences to the value obtained for the vehicle-treated group”. Further, the Neuroprotection at 1 µM under setting [2] amounted to 38.5 ± 0.62%.

`COc1ccc2nc(S(=O)(=O)c3ccccc3)c(/C=[N+](\[O-])Cc3ccccc3)cc2c1` [QN8, (Z)-N-Benzyl-1-(6-methoxy-2-(phenylsulfonyl)quinolin-3-yl)methanimine oxide]: the “neuroprotection effect / potency compared with references, in words” value is “highest neuroprotection effect”. In addition, the Neuroprotection at 1 µM under setting [2] turned out to be 54.1 ± 2.27%.

With `COc1ccc2nc(S(=O)(=O)c3ccc([N+](=O)[O-])cc3)c(/C=[N+](\[O-])Cc3ccccc3)cc2c1` [QN10, (Z)-N-Benzyl-1-(2-((4-nitrophenyl)sulfonyl)-6-methoxyquinolin-3-yl)methanimine oxide], the Neuroprotection at 1 µM under setting [2] was found to be 47.2 ± 0.94%.

Under setting [2], `COc1ccc2nc(S(=O)(=O)c3ccc([N+](=O)[O-])cc3)c(/C=[N+](\[O-])C(C)(C)C)cc2c1` [QN11, (Z)-N-tert-Butyl-1-(2-((4-nitrophenyl)sulfonyl)-6-methoxyquinolin-3-yl)methanimine oxide] came in with a Neuroprotection at 1 µM of 46.5 ± 1.94%.

Consider `COc1ccc2nc(-c3ccc(C(F)(F)F)cc3)c(/C=[N+](\[O-])C(C)(C)C)cc2c1` [QN13, (Z)-N-tert-Butyl-1-(6-methoxy-2-(4-(trifluoromethyl)phenyl)quinolin-3-yl)methanimine oxide], for which, under setting [2], the Neuroprotection at 1 µM was 39.3 ± 1.16%.

For the compound `COc1ccc2nc(-c3ccc([N+](=O)[O-])cc3)c(/C=[N+](\[O-])Cc3ccccc3)cc2c1` [QN14, (Z)-N-Benzyl-1-(6-methoxy-2-(4-nitrophenyl)quinolin-3-yl)methanimine oxide], the “neuroprotection effect / potency compared with references, in words” value is “highest neuroprotection effect” and the “toxicity / safety, in words” value is “safe”. Where the note is “1 µM”, this compound showed a cell viability of 1.742 ± 0.04 AU. Under setting [2], this compound had a Neuroprotection at 1 µM of 60.1 ± 1.24%.

As for `COc1ccc2nc(-c3ccc([N+](=O)[O-])cc3)c(/C=[N+](\[O-])C(C)(C)C)cc2c1` [QN15, (Z)-N-tert-Butyl-1-(6-methoxy-2-(4-nitrophenyl)quinolin-3-yl)methanimine oxide], the “neuroprotection effect / potency compared with references, in words” value is “highest neuroprotection effect” and the “toxicity / safety, in words” value was “safe”. The compound further returned a Neuroprotection at 1 µM under setting [2] of 48.1 ± 1.21%.

Take `CCOC(=O)/C=C/c1nc2ccc(OC)cc2cc1/C=[N+](\[O-])C(C)(C)C` [QN16, (Z)-N-tert-Butyl-1-(2-((E)-3-ethoxy-3-oxoprop-1-en-1-yl)-6-methoxyquinolin-3-yl)methanimine oxide]: the “effect compared with vehicle R24h, in words” value (1 µM dose) is reported as “higher effect than vehicle R24h”.

Regarding `COc1ccc2nc(Cl)c(/C=[N+](\[O-])C(C)(C)C)cc2c1` [QN23, (Z)-N-tert-butyl-1-(2-chloro-6-methoxyquinolin-3-yl)methanimine oxide, reference compound], the cell viability (10 µM) was determined as 1.695 ± 0.03 AU. For the same compound, under setting [2], the Neuroprotection at 10 µM was 49 ± 0.89%.

As for `C[N+](C)(C)CCOP(=O)(O)OP(=O)([O-])OC[C@H]1O[C@@H](n2ccc(N)nc2=O)[C@H](O)[C@@H]1O` [citicoline, reference compound], the cell viability (100 µM) is reported as 1.588 ± 0.02 AU.
